Consider one molecule from ChEMBL document CHEMBL1151530, “Characterization of the in vitro oxidative metabolites of the COX-2 selective inhibitor L-766,112” (Bioorg Med Chem Lett, 1997).

Data set [1] is described as follows: Percentage recovery in rat hepatic microsomal fractions under oxidative conditions after 1 hour. It counts as ADME. As to conditions: liver microsomes, read-out: Recovery. For orientation: Liver microsomes are a subcellular fraction often used to study metabolism.
The species named for the next data set is Macaca mulatta. The experiment in a line: Percentage recovery in rhesus monkey hepatic microsomal fractions under oxidative conditions after 1 hour. As to conditions: liver microsomes.

Structures are written as SMILES.

In the case of `CS(=O)(=O)c1ccc(-c2c(-c3ccccc3)nc3sccn23)cc1`, the remaining at 1 h was determined as 75% in data set [1] and 65% in the data set listed under Macaca mulatta.
